Results taken from patent US7615361B2, “Toxicity screening methods” (Ceetox, Inc., priority 2006, dated 2009).

Tests used:
MTT reduction = conditions: human; for CC50 at 24 h: MTT TC50, SK-MEL28, 24 HR
Method: Tetrazolium Dye Reduction: 3-[4,5-dimethylthiazol-2-yl]
The test compound consisted of two parts mixed in a constant ratio of 5:1. The final test mixture consisted of Test mix 1 and Test mix 2, which were received as frozen solutions. The test mixture was tested in a ratio of 5:1 COMP A in five different cell types which included the following: SK-MEL28, human hepatocytes, HUVEC, C32, and NHEM cells. Cells were seeded into 96-well plates and cultured in medium containing 10% bovine serum. […]
Experimental Protocol: The test compounds were shipped on dry ice for testing. The compounds were stored frozen at −80° C. until needed. Dosing solutions were prepared in complete culture medium. SK-MEL28, human hepatocytes, HUVEC, C32, and NHEM cells were used as the test systems. Cells were seeded into 96-well plates and allowed to equilibrate for approximately 48 hr. Following the equilibration period the cells were exposed to the test compound mix at concentrations of COMP A (μg/mL)=(250:50), (125:25), (25:12.5), (12.5:2.5), (2.5:1.25), (1.25:0.25), and (0.25:0.05). Solubility was determined by Nephalometry techniques immediately after dosing and prior to harvesting the cells at 24 hr. Following the exposure period, the cells or their supernatant (culture medium) were analyzed for changes in cell proliferation, membrane leakage, mitochondrial function, oxidative stress, and apoptosis. The resultant exposure concentration response curves were graphed and analyzed for determining the concentration that produced a half maximal response or TC50.

HUVEC = test: Predicted Ctox from Tox-Panel; format: cell-based, human; conditions: 24 HR
Method: (§1) Studies such as these indicate that a preferred concentration for setting Ctox is the highest concentration at which there is no observed effect on any of the indicators being measured in the cluster analysis, especially a 24-hour cluster analysis. […] It will be apparent that 24 hour assays are more time-effective, and consequently, the 24 hour NOEL/Ctox represents a preferred data point to select as Ctox in a CATS assay. It will also be apparent that, with further time studies, it may be possible to select an equally suitable Ctox at other CATS assay time points (e.g., between 24 and 72 hours, or less than 24 hours).
(§2) In certain embodiments, the predicting comprises performing concentration response analyses of measurements from at least three separate assays that are employed in the cluster analysis. For example, in the cell health cluster, such predicting will involve monitoring the concentration response effect of the compound on a first health indicator which monitors cellular replication, a second cell health indicator which monitors mitochondrial function, and a third cell health indicator which monitors membrane integrity. Of course, it is understood that fourth, fifth, sixth or more cell health indicators also may be employed. From these concentration response analyses, the highest concentration of the chemical compound at which a measurable toxic effect of the chemical compound is not observable, i.e. NOEL, is determined and the Ctox is identified as the concentration that correlates to the NOEL. In choosing the concentrations of the compound for analysis, one of skill in the art should devise a dose response regimen which is selected to provide an indication of cell health at concentrations of at least two concentration values higher than the Ctox concentration.
(§3) The results are summarized in Tables 14-17 and in FIGS. 83-102. Table 14 compares the test compound TC50 values for each assay endpoint. Test compounds are rank-ordered from most to least toxic based on their TC50 values and overall shape of the response curves. The Ctox value, or estimated sustained blood concentration where toxicity would first be expected to occur in a rat 14-day repeated dose study, is also included in this table. Negative and positive controls are included with every run. Assay response is continually monitored to assure reliable results. […] Table 15 summarizes oxidative stress and apoptosis data, Table 16 summarizes the solubility data, and Table 17 provides information on interaction with PgP.
(§4) The Ctox value was developed using 24 hr in vitro (H4IIE) toxicity data and was validated by retrospectively evaluating compounds across different classes of drugs in 14-day rat studies in which compounds were administered on a daily basis and pharmacokinetic data was available. […] Thus, Ctox values are only determined for the 24 hr in vitro results. In this example, Ctox values could not be estimated due to low toxicity in most of the cell lines.

NHEM cells = test: Predicted Ctox from Tox-Panel; format: cell-based, human; conditions: 24 HR
Method: as §1, §2, §3, §4

SK-MEL28 cells = test: Predicted Ctox from Tox-Panel; format: cell-based, human; conditions: SK-MEL28, 24 HR
Method: as §1, §2, §3, §4

P-glycoprotein (PgP) [1] = target: T1, P-glycoprotein (PgP) (Homo sapiens, UniProt P08183); test: P-glycoprotein (PgP) binding: MTT with and without cyclosporin A, HUVEC; format: cell-based; design: SK-MEL28, human hepatocytes, HUVEC, C32, and NHEM cells were used as the test systems; endogenous in cells; conditions: HUVEC 24 HR; for % Control (Compound + CSA): with cyclosporin A; for % Control (Compound): without CSA
P-glycoprotein (PgP) [2] = target: T1, P-glycoprotein (PgP); test: P-glycoprotein (PgP) binding: MTT with and without cyclosporin A, SK-MEL28 cells; format: cell-based; design: SK-MEL28, human hepatocytes, HUVEC, C32, and NHEM cells were used as the test systems; endogenous in cells; host or cells: SK-MEL28 cells; conditions: SK-MEL28 24 HR; for % Control (Compound + CSA): with cyclosporin A; for % Control (Compound): without CSA

T1 sequence (P08183 whole entry): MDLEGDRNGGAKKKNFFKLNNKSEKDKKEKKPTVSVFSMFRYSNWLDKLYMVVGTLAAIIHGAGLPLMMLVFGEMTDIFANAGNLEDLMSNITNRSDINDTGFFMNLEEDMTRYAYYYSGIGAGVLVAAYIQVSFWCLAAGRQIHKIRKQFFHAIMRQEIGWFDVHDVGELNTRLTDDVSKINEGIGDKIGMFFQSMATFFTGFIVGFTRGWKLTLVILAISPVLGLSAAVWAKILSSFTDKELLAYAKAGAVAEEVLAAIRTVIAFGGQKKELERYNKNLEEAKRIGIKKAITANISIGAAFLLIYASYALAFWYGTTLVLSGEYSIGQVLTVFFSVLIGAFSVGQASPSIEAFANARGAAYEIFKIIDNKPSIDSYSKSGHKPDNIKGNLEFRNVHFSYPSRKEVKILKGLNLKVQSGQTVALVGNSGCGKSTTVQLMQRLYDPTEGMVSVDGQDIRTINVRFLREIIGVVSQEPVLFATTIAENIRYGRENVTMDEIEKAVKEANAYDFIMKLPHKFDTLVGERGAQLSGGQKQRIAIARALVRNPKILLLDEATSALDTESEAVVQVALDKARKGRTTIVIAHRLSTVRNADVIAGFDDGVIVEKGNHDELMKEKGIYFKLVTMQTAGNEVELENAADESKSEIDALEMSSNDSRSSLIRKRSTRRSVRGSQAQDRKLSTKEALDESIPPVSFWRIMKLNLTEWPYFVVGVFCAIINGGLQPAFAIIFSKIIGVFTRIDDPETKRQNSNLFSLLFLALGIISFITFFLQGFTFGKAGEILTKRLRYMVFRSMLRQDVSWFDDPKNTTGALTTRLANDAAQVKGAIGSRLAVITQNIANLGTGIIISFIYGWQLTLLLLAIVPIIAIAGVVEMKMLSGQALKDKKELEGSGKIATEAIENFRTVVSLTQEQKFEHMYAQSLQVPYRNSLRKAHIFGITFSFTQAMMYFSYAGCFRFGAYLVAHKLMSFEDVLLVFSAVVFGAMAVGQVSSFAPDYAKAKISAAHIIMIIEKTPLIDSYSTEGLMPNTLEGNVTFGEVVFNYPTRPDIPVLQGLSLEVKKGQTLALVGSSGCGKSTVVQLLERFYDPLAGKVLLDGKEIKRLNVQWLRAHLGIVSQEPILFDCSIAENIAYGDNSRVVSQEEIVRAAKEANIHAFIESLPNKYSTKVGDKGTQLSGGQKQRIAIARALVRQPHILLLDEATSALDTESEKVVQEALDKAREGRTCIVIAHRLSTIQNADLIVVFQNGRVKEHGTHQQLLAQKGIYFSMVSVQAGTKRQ

| Compound | CC50 at 24 h (MTT reduction; SK-MEL28 cells) [µM] | CC50 at 24 h (MTT reduction; SK-MEL28 cells, run #2) [µM] | CC50 at 72 h (MTT reduction; SK-MEL28 cells, MTT TC50, SK-MEL28, 72 HR, run #2) [µM] | Predicted Ctox (HUVEC) [µM] | Predicted Ctox (NHEM cells) [µM] | Predicted Ctox (SK-MEL28 cells) [µM] | Predicted Ctox (SK-MEL28 cells; run #2) [µM] | % Control (Compound + CSA) (P-glycoprotein (PgP) [1]) [%] | % Control (Compound) (P-glycoprotein (PgP) [1]) [%] | % Control (Compound + CSA) (P-glycoprotein (PgP) [2]) [%] | % Control (Compound) (P-glycoprotein (PgP) [2]) [%] | CC50 at 72 h (MTT reduction) [µM] |
| --- | --- | --- | --- | --- | --- | --- | --- | --- | --- | --- | --- | --- |
| CC[C@@]1(O)C(=O)OCc2c1cc1n(c2=O)Cc2cc3ccccc3nc2-1 [CAMPTOTHECIN, Camptothecin] | 241 | 249 | 0.1 | 0.1 | 33 | 0.1 | 0.1 | 18.0 | 29.4 | 63.3 | 56.5 |  |
| C=C(C)[C@H]1Cc2c(ccc3c2O[C@@H]2COc4cc(OC)c(OC)cc4[C@@H]2C3=O)O1 [ROTENONE, Rotenone] |  |  |  | 0.1 | 10 | 1 | 0 | 77.8 | 75.4 | 117.3 | 98.2 | 0.2 |
